# Values of other authors, collected in patent publication US6673767B1, “Gel composition and methods” (Alza Corporation, priority 1996, dated 2004).
# Conditions: for Water Miscibility: solvent in water (Merck)
reported solubility in water (solvent in water),Water Miscibility,SMILES
7.17 grams in 100 ml of water,7% sol. in water (Merck),"CC(=O)OCC(COC(C)=O)OC(C)=O [Triacetin, triacetin]"
–,insol. in water (Merck),"O=C(OCc1ccccc1)c1ccccc1 [Benzyl Benzoate, benzyl benzoate]"
–,misc. with water (Merck),"CN1CCCC1=O [NMP, N-methyl-2-pyrrolidone]"
